Assay results published in the supplement of paper PMC10307832.

Legend:
Experiment in all cases: relative viability (nuclei count vs DMSO), 5 days (fraction); higher = more cells survive
[1] = compound: CN[C@@H]1C[C@H]2O[C@@](C)([C@@H]1OC)n1c3ccccc3c3c4c(c5c6ccccc6n2c5c31)C(=O)NC4 [Staurosporine] + CC1(C)CCC(c2ccc(Cl)cc2)=C(CN2CCN(c3ccc(C(=O)NS(=O)(=O)c4ccc(N[C@H](CCN5CCOCC5)CSc5ccccc5)c(S(=O)(=O)C(F)(F)F)c4)cc3)CC2)C1 [Navitoclax] (partner 0.5 µM)
How it was run: (§1)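 Lung cancer cell lines, seeded in 1536-well plates, were treated the following day by pin tool with a single drug or with five library-drug doses (not always all listed) in √10 steps on top of a fixed anchor-drug dose. Cells were fixed and nuclei stained in one step after 5 days, and nuclei were counted. Relative viability is the nuclei count for treated wells divided by that for vehicle wells, reported as medians of duplicate plates.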

[2] = compound: CN[C@@H]1C[C@H]2O[C@@](C)([C@@H]1OC)n1c3ccccc3c3c4c(c5c6ccccc6n2c5c31)C(=O)NC4 [Staurosporine] + Nc1nc2[nH]cc(CCc3ccc(C(=O)N[C@@H](CCC(=O)O)C(=O)O)cc3)c2c(=O)[nH]1 [Pemetrexed] (partner 0.2 µM)
How it was run: as §1

[3] = compound: CN[C@@H]1C[C@H]2O[C@@](C)([C@@H]1OC)n1c3ccccc3c3c4c(c5c6ccccc6n2c5c31)C(=O)NC4 [Staurosporine] + CC(=O)c1c(C)c2cnc(Nc3ccc(N4CCNCC4)cn3)nc2n(C2CCCC2)c1=O [Palbociclib] (partner 0.5 µM)
How it was run: as §1

Sulindac + Dasatinib = compound: CC1=C(CC(=O)O)c2cc(F)ccc2/C1=C\c1ccc([S+](C)[O-])cc1 [Sulindac] + Cc1nc(Nc2ncc(C(=O)Nc3c(C)cccc3Cl)s2)cc(N2CCN(CCO)CC2)n1 [Dasatinib] (partner 0.075 µM)
How it was run: as §1

Cell Line	relative viability ([1]; first compound 0.005 µM)	relative viability ([1]; first compound 0.01581 µM)	relative viability ([1]; first compound 0.05 µM)	relative viability ([1]; first compound 0.1581 µM)	relative viability ([1]; first compound 0.5 µM)	relative viability ([2]; first compound 0.005 µM)	relative viability ([2]; first compound 0.01581 µM)	relative viability ([2]; first compound 0.05 µM)	relative viability ([2]; first compound 0.1581 µM)	relative viability ([2]; first compound 0.5 µM)	relative viability ([3]; first compound 0.005 µM)	relative viability ([3]; first compound 0.01581 µM)	relative viability ([3]; first compound 0.05 µM)	relative viability ([3]; first compound 0.1581 µM)	relative viability ([3]; first compound 0.5 µM)	relative viability (Sulindac + Dasatinib; first compound 0.08 µM)	relative viability (Sulindac + Dasatinib; first compound 0.253 µM)	relative viability (Sulindac + Dasatinib; first compound 2.53 µM)	relative viability (Sulindac + Dasatinib; first compound 8 µM)	relative viability (Sulindac + Dasatinib; first compound 0.8 µM)
EBC-1	0.252	0.129	0.118	0.11	0.094															
EKVX	0.306	0.222	0.254	0.168	0.112	0.197	0.139	0.189	0.255	0.141	0.266	0.143	0.152	0.168	0.0893	0.414	0.524	0.479	0.476	
EMC-BAC-2	1.1	0.777	0.172	0.153	0.127	0.362	0.273	0.258	0.255	0.224	0.383	0.242	0.213	0.228	0.207	0.269	0.323	0.314	0.367	0.378
EPLC-272H	1.34	0.463	0.409	0.163	0.19	0.213	0.13	0.146	0.0971	0.0691	0.3	0.275	0.193	0.157	0.0846	0.424	0.377	0.358	0.332	
H3255	0.172	0.102	0.112	0.0846	0.0541	0.481	0.392	0.305	0.213	0.135	0.275	0.24	0.24	0.181	0.178	0.407	0.319	0.389	0.399	0.487
HARA		0.538	0.37	0.157	0.161	0.195	0.167	0.134	0.138	0.168	0.268	0.236	0.206	0.177	0.118	0.248	0.25	0.327	0.26	0.277
HCC-15	0.677		0.392	0.282	0.183	0.217	0.188	0.189	0.157	0.134	0.527		0.503	0.275	0.229	0.674	0.614	0.573	0.656	0.544
HCC-44	0.867	0.28	0.215	0.185	0.13	0.629		0.583	0.27	0.235			0.768	0.53	0.41					
HCC-78	0.711	0.563	0.553	0.358	0.206	0.978	0.893	0.882	0.927	0.881	0.502	0.469	0.462	0.472	0.464	0.552	0.313	0.587	0.401	0.345
